# Assay results from EPA's ToxValDB 9.5.
# Several values for one entry are separate records, joined by “and”; a condition that tells them apart may be missing. Equal entries are not always repeated.
# How the values were obtained:
# [1] = system: Crangonyx richmondensis ssp. laurentianus; experiment: FEL; higher = less toxic; details: short-term; duration: 22 day; whole body; M/F; Monoporeia affinis; parasite infection
# [2] = system: Crangonyx richmondensis ssp. laurentianus; details: whole body, Monoporeia affinis, parasite infection
# Mus musculus = details: oral
# [3] = developmental, duration: 16 days, gavage, F, B6C3F1, generation: F1, F1: spleen: spleen B220+ cells + F1: spleen: Splenic NK cell activity
# [4] = developmental, duration: 16 days, gavage, M, B6C3F1, generation: F1, F1: IgM antibody titer (SRBC) + F1: thymus: thymus CD3+ cells + F1: thymus: thymus CD4+ cells
# [5] = developmental, duration: 16 days, gavage, M, B6C3F1, generation: F1, F1: spleen: Splenic NK cell activity
# [6] = short-term, duration: 7 days, gavage, M, BALB/c, spleen: lymphocyte proliferation (ConA)
# [7] = short-term, duration: 7 days, gavage, M, BALB/c, spleen: spleen CD3+ cells (cells normalized to control)
# [8] = short-term, duration: 7 days, gavage, M, C57BL/6, serum corticosterone + spleen: IFN-gamma levels + spleen: IL-2 secreting splenocytes + spleen: spleen: relative weight + thymus: thymus: …
# [9] = short-term, duration: 7 days, gavage, M, C57BL/6, serum corticosterone + spleen: lymphocyte proliferation (LPS) + spleen: spleen cellularity + spleen: spleen: relative weight + spleen: …
# [10] = short-term, duration: 7 days, gavage, M, C57BL/6, spleen: apoptotic splenocytes + spleen: spleen - mitochondrial membrane Rh123 fluorescence + spleen: spleen - ROS-DCF fluorescence + spleen…
# [11] = short-term, duration: 7 days, gavage, M, C57BL/6, spleen: splenic DN (CD4-CD8-) cells
# [12] = short-term, duration: 7 days, gavage, M, C57BL/6, spleen: splenocytes - CAT activity + spleen: splenocytes - GST activity + splenic lymphocyte protein - bax + splenic lymphocyte protein - …
# [13] = short-term, duration: 10 days, diet, M, 129/SV, spleen: spleen CD19+ cells + spleen: spleen CD4+ cells + spleen: spleen CD8+ cells + spleen: spleen cellularity + spleen: spleen Pan-NK+ …
# [14] = short-term, duration: 10 days, diet, M, C57BL/6, bone marrow: bone marrow cellularity + bone marrow: bone marrow: no. of CD19+ B-lymphoid cells + bone marrow: bone marrow: no. of Gr1+CD11b…
# [15] = short-term, duration: 10 days, diet, M, C57BL/6, spleen: spleen CD19+ cells + spleen: spleen CD4+ cells + spleen: spleen CD8+ cells + spleen: spleen cellularity + spleen: spleen NK1.1+ …
# [16] = short-term, duration: 10 days, diet, M, spleen: spleen: absolute weight + thymus: thymus CD4+ cells + thymus: thymus CD8+ cells + thymus: thymus cellularity + thymus: thymus DP (…
# [17] = short-term, duration: 12 days, gavage, M, C57BL/6, body mass after exposure + spleen: spleen CD8+ cells + spleen: spleen: relative weight + thymus: thymus: relative weight
# [18] = short-term, duration: 12 days, gavage, M, C57BL/6, spleen: spleen CD4+ cells + spleen: spleen cellularity
# [19] = short-term, duration: 14 days, gavage, F, BALB/c, spleen: spleen: relative weight + thymus: percentage of apoptotic cells in thymus + thymus: thymus: relative weight
# [20] = short-term, duration: 14 days, gavage, M, BALB/c, spleen: lymphocyte proliferation (ConA)
# [21] = short-term, duration: 14 days, gavage, M, BALB/c, spleen: spleen CD3+ cells + spleen: spleen CD3+CD4+ cells + spleen: spleen CD3+CD8+ cells
# [22] = short-term, duration: 14 days, gavage, M, BALB/c, spleen: spleen: relative weight
compound,measurement,setting,value
O=S(=O)(O)C(F)(F)C(F)(F)C(F)(F)C(F)(F)C(F)(F)C(F)(F)C(F)(F)C(F)(F)F [Perfluorooctanesulfonic acid],FEL,[1],5 mg/L
same,NOEL,"[2]; short-term, duration: 22 day, M/F",0.2 mg/L
same,LOEL,"[2]; subchronic, duration: 5 week, F",0.01 mg/L
same,NOEL,"Mus musculus; developmental, duration: 16 days, gavage, F, B6C3F1, generation: F1, F1: body weight (4 weeks of age) + F1: body weight (8 weeks of age) + F1: IgM antibody titer (SRBC) + F1: spleen: spleen CD3+ cells + F1: …",5 mg/kg-day
same,LOEL,Mus musculus; [3],5 mg/kg-day
same,NOEL,Mus musculus; [3],1 mg/kg-day
same,LOEL,Mus musculus; [4],5 mg/kg-day
same,NOEL,Mus musculus; [4],1 mg/kg-day
same,NOEL,"Mus musculus; developmental, duration: 16 days, gavage, M, B6C3F1, generation: F1, F1: body weight (4 weeks of age) + F1: body weight (8 weeks of age) + F1: spleen: spleen B220+ cells + F1: spleen: spleen CD3+ cells + F1: …",5 mg/kg-day
same,LOEL,Mus musculus; [5],1 mg/kg-day
same,NOEL,Mus musculus; [5],0.1 mg/kg-day
same,NOEL,"Mus musculus; reproduction developmental, diet, M/F, BALB/c, generation: F1, F1: airway MCh sensitivity + F1: airway resistance (at 25 mg/mL methacholine) + F1: lung: BALF inflammatory cell counts: eosinophils + F1: …",4 ppm
same,LOEL,"Mus musculus; reproduction developmental, diet, M/F, BALB/c, generation: F1, F1: airway MCh sensitivity + F1: lung: BALF inflammatory cell counts: macrophages + F1: lung: BALF inflammatory cell counts: total cell …",4 ppm
same,NOEL,"Mus musculus; short-term, duration: 3 weeks, gavage, F, BALB/c, IgM antibody level (TNP 1:200) + IgM antibody level (TNP 1:50)",20 mg/kg-day
same,LOEL,"Mus musculus; short-term, duration: 7 days, gavage, F, BALB/c, Peripheral blood phagocytosis (HEMA) + spleen: lymphocyte proliferation (ConA) + spleen: spleen cellularity + spleen: Splenic NK cell …",20 mg/kg-day
same,NOEL,"Mus musculus; short-term, duration: 7 days, gavage, F, BALB/c, spleen: lymphocyte proliferation (LPS) + spleen: spleen CD4+ cells + spleen: spleen CD49b+ cells + spleen: spleen CD8+ cells + spleen: …",20 mg/kg-day
same,LOEL,Mus musculus; [6],10 mg/kg-day
same,NOEL,Mus musculus; [6],5 mg/kg-day
same,LOEL,Mus musculus; [7],5 mg/kg-day
same,NOEL,Mus musculus; [7],2.5 mg/kg-day
same,NOEL,"Mus musculus; short-term, duration: 7 days, gavage, M, BALB/c, spleen: spleen CD3+ cells + spleen: spleen CD3+CD4+ cells + spleen: spleen CD3+CD4+ cells (cells normalized to control) + spleen: spleen CD3…",10 mg/kg-day
same,LOEL,"Mus musculus; short-term, duration: 7 days, gavage, M, C57BL/6, IgM antibody-secreting cells (SRBC) + spleen: lymphocyte proliferation (ConA)",5 mg/kg-day
same,LOEL,Mus musculus; [8],20 mg/kg-day
same,NOEL,Mus musculus; [8],5 mg/kg-day
same,LOEL,Mus musculus; [9],20 mg/kg-day
same,NOEL,Mus musculus; [9],5 mg/kg-day
same,LOEL,"Mus musculus; short-term, duration: 7 days, gavage, M, C57BL/6, spleen: IL-4 levels + Total serum IgG level + Total serum IgM level",5 mg/kg-day
same,NOEL,"Mus musculus; short-term, duration: 7 days, gavage, M, C57BL/6, spleen: IL-10 secreting splenocytes",20 mg/kg-day
same,LOEL,Mus musculus; [10],5 mg/kg-day
same,NOEL,Mus musculus; [10],1 mg/kg-day
same,NOEL,"Mus musculus; short-term, duration: 7 days, gavage, M, C57BL/6, spleen: spleen: relative weight + thymus: thymus: relative weight",10 mg/kg-day
same,LOEL,Mus musculus; [11],40 mg/kg-day
same,NOEL,Mus musculus; [11],20 mg/kg-day
same,NOEL,"Mus musculus; short-term, duration: 7 days, gavage, M, C57BL/6, spleen: splenic DP (CD4+CD8+) cells",40 mg/kg-day
same,LOEL,Mus musculus; [12],10 mg/kg-day
same,NOEL,Mus musculus; [12],5 mg/kg-day
same,LOEL,Mus musculus; [13],0.02%
same,NOEL,Mus musculus; [13],0.005%
same,NOEL,"Mus musculus; short-term, duration: 10 days, diet, M, C57BL/6, blood serum: IL-6 levels (+LPS in vivo) + blood serum: TNF-alpha levels + blood serum: TNF-alpha levels (+LPS in vivo) + bone marrow: IL-6 …",0.02%
same,LOEL,"Mus musculus; short-term, duration: 10 days, diet, M, C57BL/6, blood serum: IL-6 levels + bone marrow: IL-6 levels (+ LPS in vitro) + bone marrow: IL-6 levels (+ LPS in vivo) + bone marrow: percent …",0.02%
same,LOEL,Mus musculus; [14],0.02%
same,NOEL,Mus musculus; [14],0.002%
same,NOEL,"Mus musculus; short-term, duration: 10 days, diet, M, C57BL/6, bone marrow: bone marrow: no. of early mature CD19+CD138-IgM+ B cells",0.02%
same,LOEL,"Mus musculus; short-term, duration: 10 days, diet, M, C57BL/6, intrahepatic immune cells: TER119 (erythroid progenitor) + liver: IFN-gamma levels + liver: IL-4 levels + liver: TNF-alpha levels",0.005%
same,NOEL,"Mus musculus; short-term, duration: 10 days, diet, M, C57BL/6, intrahepatic immune cells: all leukocytes (CD45+) + intrahepatic immune cells: B cells (CD19+) + intrahepatic immune cells: CD138 (plasma …",0.005%
same,LOEL,"Mus musculus; short-term, duration: 10 days, diet, M, C57BL/6, liver: IFN-gamma levels + liver: IFN-gamma levels (+Con A) + liver: IL-4 levels + liver: IL-4 levels (+Con A) + liver: TNF-alpha levels + …",0.004%
same,LOEL,Mus musculus; [15],0.02%
same,NOEL,Mus musculus; [15],0.005%
same,NOEL,"Mus musculus; short-term, duration: 10 days, diet, M, spleen: spleen CD19+ cells + spleen: spleen CD4+ cells + spleen: spleen CD8+ cells + spleen: spleen cellularity + spleen: spleen Pan-NK+ …",0.02%
same,LOEL,Mus musculus; [16],0.02%
same,NOEL,Mus musculus; [16],0.005%
same,LOEL,Mus musculus; [17],10 mg/kg-day
same,NOEL,Mus musculus; [17],5 mg/kg-day
same,LOEL,Mus musculus; [18],20 mg/kg-day
same,NOEL,Mus musculus; [18],10 mg/kg-day
same,LOEL,Mus musculus; [19],20 mg/kg-day
same,NOEL,Mus musculus; [19],5 mg/kg-day
same,NOEL,"Mus musculus; short-term, duration: 14 days, gavage, M, BALB/c, spleen mRNA expression of IL-1Beta + thymus mRNA expression of IL-1Beta + thymus: percentage of apoptotic cells in thymus + thymus: thymus: …",20 mg/kg-day
same,LOEL,Mus musculus; [20],10 mg/kg-day
same,NOEL,Mus musculus; [20],5 mg/kg-day
same,LOEL,"Mus musculus; short-term, duration: 14 days, gavage, M, BALB/c, spleen: spleen CD3+ cells (cells normalized to control) + spleen: spleen CD3+CD4+ cells (cells normalized to control) + spleen: spleen CD3+…",2.5 mg/kg-day
same,LOEL,Mus musculus; [21],5 mg/kg-day
same,NOEL,Mus musculus; [21],2.5 mg/kg-day
same,LOEL,Mus musculus; [22],20 mg/kg-day
same,NOEL,Mus musculus; [22],5 mg/kg-day and 10 mg/kg-day
same,LOEL,"Mus musculus; short-term, duration: 14 days, gavage, M, BALB/c, thymus: percentage of apoptotic cells in thymus + thymus: thymus: relative weight",5 mg/kg-day
same,LOEL (TAD),"Mus musculus; short-term, duration: 21 days, gavage, F, B6C3F1, IgM antibody titer (TNP)",7 mg/kg-day
same,LOEL,"Mus musculus; short-term, duration: 21 days, gavage, F, B6C3F1, Survival rate (influenza A infection)",0.025 mg/kg-day
